Laboratory results taken from patent publication US8101732B2, “Methods of producing validamycin A analogs and uses thereof” (State of Oregon acting by and through the State Board of …, priority 2008, dated 2012).

Tested on: Pellicularia sasakii (=R. solani)
Assay: Fungal growth inhibitory assay (agar plug assay)
Format: cell-based
Conditions: growth monitored after two days, FIG. 4
Method: Fungal growth inhibitory assay of 1,1′-bis-valienamine (3) and validienamycin (4): 1% agar (14 mL) was mixed with the compounds (dissolved in 1 mL H2O) and then plated into Petri dishes. Discs of PDA agar with mycelia of Pellicularia sasakii were placed in the center of the above plates as the indicator strain for bioassay of the compounds. The plates were incubated at 30° C. for 2 days.
Antifungal activity assays of compounds 3 and 4 were tested against Pellicularia sasakii (=R. solani) using an agar plug assay (Minagawa et al., Chembiochem 8: 632-641, 2007). Agar plugs with diameter of 5 mm and containing P. sasakii mycelia were placed in the center of agar plates that contain each compound and the growth of the pathogen was monitored after two days. Active compounds were determined based on their ability to inhibit the expansion of the fungal mycelia on the Petri dishes.

OCC1=C[C@H](N[C@H]2C[C@H](CO)[C@@H](O[C@@H]3OC(CO)[C@@H](O)C(O)[C@H]3O)[C@H](O)[C@H]2O)[C@H](O)[C@@H](O)[C@@H]1O (some centres unmarked) [Compound 1, validamycin A]
fungistatic activity (inhibition of expansion of the fungal mycelia) (lower concentration (0.02 mM) in agar plate): the most active compound among those evaluated

OCC1=C[C@H](N[C@H]2C=C(CO)[C@@H](O)[C@H](O)[C@H]2O)[C@H](O)[C@@H](O)[C@@H]1O [Compound 4, validienamycin]
fungistatic activity (inhibition of expansion of the fungal mycelia) (0.2 mM concentration in agar plate): comparable fungistatic activity with 1 and 2
